Source: patent US8852953B2, “Immunodetection and quantification of pyrazolopyrimidine sedatives” (Randox Laboratories Ltd., priority 2009, dated 2014)
Converted amounts (≈) assume the structure as drawn.

Columns and labels:
[1] = tested on: antiserum raised to Immunogen A (Hapten-A-BTG); assay: Competitive ELISA with antiserum raised to Immunogen A and Conjugate A (Hapten-A-HRP) as detection reagent; type: binding, sheep
Method: Aqueous solutions of the immunogens prepared in Examples 6 and 12 were formulated with Freund's Complete Adjuvant (FCA) to form emulsions of Immunogen A and Immunogen [[B]]C in 50% (v/v) FCA. Individual sheep were immunised with the emulsions of Immunogen A and Immunogen C (primary immunisations), 0.25 ml being subcutaneously injected in the flank of each animal. Subsequent boosts of emulsified immunogens in 50% (v/v) Freund's Incomplete Adjuvant (FIA) were at monthly intervals for 1 year. Blood sampling took place 7-14 days after each boost. Each sample was processed to produce antisera which were further purified by caprylic acid and ammonium sulfate precipitated to yield an immunoglobulin G (IgG) fraction. The IgG fraction was evaluated by competitive ELISA microtitre plate assay, as described in Example 15.
The wells of an enhanced binding 96 well polystyrene microtitre plate were coated with the IgG fraction of the antiserum raised to Immunogen A Hapten A-BTG diluted in 10 mM Tris, pH8.5 (125 μl/well). The appropriate antibody coating dilution was determined using standard ELISA chequerboard techniques. The plate was incubated for 2 hours at 37° C., washed 4 times with Tris buffered saline containing Tween 20 (TBST) and tapped dry. […] 75 μl of Conjugate A (Hapten A-HRP), diluted in Tris buffer containing EDTA, D-mannitol, sucrose, thimerosal and BSA, was added to each of the wells. The appropriate dilution of conjugate was also determined using standard ELISA chequerboard techniques. The plate was incubated at 25° C. for 1 hour. The excess unbound conjugate was removed by washing 6 times over a 10 minute period with TBST. 125 μl of tetramethylbenzedine (TMB) substrate solution was added to each well of the plate and incubated for 20 minutes in the dark at room temperature. The reaction was stopped by the addition of 125 μl of 0.2M H2SO4 to each well. The absorbance was then measured at 450 nm using a microtitre plate reader.

[2] = tested on: antiserum raised to Immunogen C (Hapten-C-BTG); assay: Competitive ELISA with antiserum raised to Immunogen C and Conjugate C (Hapten-C-HRP) as detection reagent; type: binding, sheep; conditions: for % CR (percentage cross-reactivity based on specificity to Zaleplon) / IC50 (standard concentration which produces 50% B/B0): antiserum to Immunogen C, Conjugate C
[3] = antiserum to Immunogen A, Conjugate A
[4] = standard concentration 0.025 ng/ml
[5] = standard concentration 0.050 ng/ml
[6] = standard concentration 0.100 ng/ml
[7] = standard concentration 0.200 ng/ml
[8] = standard concentration 0.400 ng/ml
[9] = standard concentration 0.800 ng/ml
[10] = standard concentration 1.600 ng/ml
[11] = standard concentration 0.156 ng/ml
[12] = standard concentration 0.313 ng/ml
[13] = standard concentration 0.625 ng/ml
[14] = standard concentration 1.250 ng/ml
[15] = standard concentration 2.500 ng/ml
[16] = standard concentration 5.000 ng/ml
[17] = standard concentration 10.000 ng/ml

Row | Structure (SMILES) | % CR (percentage cross-reactivity based on specificity to Zaleplon) [1, 3] | % CR (percentage cross-reactivity based on specificity to Zaleplon) [2] | IC50 (standard concentration which produces 50% B/B0) [2] | % B/B0 [2, 11] | A450 [2, 11] | % B/B0 [2, 12] | A450 [2, 12] | % B/B0 [2, 13] | A450 [2, 13] | % B/B0 [2, 14] | A450 [2, 14] | % B/B0 [2, 15] | A450 [2, 15] | % B/B0 [2, 16] | A450 [2, 16] | % B/B0 [2, 17] | A450 [2, 17] | further results
1 | CCN(C(C)=O)c1cccc(-c2ccnc3c(C#N)cnn23)c1 [Zaleplon, zaleplon] | 100% | 100% | 0.432 ng/mL (≈ 1.41 nM) | 65% | 1.487 | 54% | 1.236 | 45% | 1.021 | 36% | 0.825 | 27% | 0.610 | 20% | 0.457 | 15% | 0.337 | IC50 of zaleplon-specific antibody ([1]; as stated in the description): 0.063 ng/mL; % B/B0 [1, 4]: 72%; A450 [1, 4]: 1.542; % B/B0 [1, 5]: 55%; A450 [1, 5]: 1.180; % B/B0 [1, 6]: 40%; A450 [1, 6]: 0.860; % B/B0 [1, 7]: 28%; A450 [1, 7]: 0.602; % B/B0 [1, 8]: 19%; A450 [1, 8]: 0.406; % B/B0 [1, 9]: 13%; A450 [1, 9]: 0.286; % B/B0 [1, 10]: 10%; A450 [1, 10]: 0.211
2 | CC(=O)N(C)c1cccc(-c2ccnc3c(C(=O)c4cccs4)cnn23)c1 [Indiplon, indiplon] | <0.63% | 22% | 1.967 ng/mL (≈ 5.23 nM) | 84% | 1.831 | 77% | 1.664 | 67% | 1.455 | 57% | 1.234 | 46% | 1.006 | 36% | 0.778 | 27% | 0.579 | IC50 (standard concentration which produces 50% B/B0) [1, 3]: >10 ng/mL; % B/B0 [1, 11]: 96%; A450 [1, 11]: 2.063; % B/B0 [1, 12]: 94%; A450 [1, 12]: 2.019; % B/B0 [1, 13]: 93%; A450 [1, 13]: 1.982; % B/B0 [1, 14]: 99%; A450 [1, 14]: 2.112; % B/B0 [1, 15]: 88%; A450 [1, 15]: 1.877; % B/B0 [1, 16]: 91%; A450 [1, 16]: 1.940; % B/B0 [1, 17]: 90%; A450 [1, 17]: 1.931
